Experimental data from publication PMC5218480 (PLoS ONE, 2017).

System: MV-4-11 cells
Assay: Gene expression microarray analysis (Affymetrix PrimeView) and GSEA
Format: cell-based, human
Set-up: RFU PODN (11730768_x_at) / Fold change /veh PODN (11730768_x_at) / RFU LINC00158 (11744669_a_at) / Fold change /veh LINC00158 (11744669_a_at) / RFU DUSP10 (11751237_a_at) / Fold change /veh DUSP10 (11751237_a_at) / RFU ID3 (11757404_x_at) / Fold change /veh ID3 (11757404_x_at) / RFU PLEKHG5 (11737974_s_at) / Fold change /veh PLEKHG5 (11737974_s_at) / RFU LRRC4B (11730491_at) / Fold change /veh LRRC4B (11730491_at) / RFU GIMAP4 (11747438_a_at) / Fold change /veh GIMAP4 (11747438_a_at) / RFU KRT8 (11758183_x_at) / Fold change /veh KRT8 (11758183_x_at) / RFU CNN1 (11734310_a_at) / Fold change /veh CNN1 (11734310_a_at) / RFU VPS37D (11726825_at) / Fold change /veh VPS37D (11726825_at) / RFU C10orf10 (11716522_x_at) / Fold change /veh C10orf10 (11716522_x_at) / RFU KIR2DL2 /// KIR2DL4 /// KIR2DL5A /// KIR2DL5B /// KIR2DS1 /// KIR2DS2 /// KIR2DS3 /// KIR2DS4 /// KIR3DL3 /// KIR3DL3 /// KIR3DS1 (11738374_at) / Fold change /veh KIR2DL2 /// KIR2DL4 /// KIR2DL5A /// KIR2DL5B /// KIR2DS1 /// KIR2DS2 /// KIR2DS3 /// KIR2DS4 /// KIR3DL3 /// KIR3DL3 /// KIR3DS1 (11738374_at) / RFU C1QL1 (11718748_at) / Fold change /veh C1QL1 (11718748_at) / RFU TMPRSS4 (11747572_a_at) / Fold change /veh TMPRSS4 (11747572_a_at) / RFU HAMP (11756126_x_at) / Fold change /veh HAMP (11756126_x_at) / RFU RNFT2 (11725882_a_at) / Fold change /veh RNFT2 (11725882_a_at) / RFU NR4A2 (11747474_a_at) / Fold change /veh NR4A2 (11747474_a_at) / RFU ABCC12 (11746883_a_at) / Fold change /veh ABCC12 (11746883_a_at) / RFU TMEM136 (11760407_x_at) / Fold change /veh TMEM136 (11760407_x_at) / RFU CLDN22 /// WWC2 (11732394_at) / Fold change /veh CLDN22 /// WWC2 (11732394_at) / RFU HLA-DPB1 (11760878_x_at) / Fold change /veh HLA-DPB1 (11760878_x_at) / RFU SPINT1 (11716480_a_at) / Fold change /veh SPINT1 (11716480_a_at) / RFU GAP43 (11754022_s_at) / Fold change /veh GAP43 (11754022_s_at) / RFU A4GNT (11735810_at) / Fold change /veh A4GNT (11735810_at) / RFU PRB3 (11715151_x_at) / Fold change /veh PRB3 (11715151_x_at) / RFU TUBB4B (11761932_at) / Fold change /veh TUBB4B (11761932_at) / RFU CAPN14 (11732068_a_at) / Fold change /veh CAPN14 (11732068_a_at) / RFU TMCC2 (11721928_a_at) / Fold change /veh TMCC2 (11721928_a_at) / RFU IRGQ (11745062_a_at) / Fold change /veh IRGQ (11745062_a_at) / RFU FAM174B (11720279_a_at) / Fold change /veh FAM174B (11720279_a_at) / RFU TMPRSS4 (11748680_a_at) / Fold change /veh TMPRSS4 (11748680_a_at) / RFU FAM212B (11763350_a_at) / Fold change /veh FAM212B (11763350_a_at) / RFU PLEKHG5 (11743358_a_at) / Fold change /veh PLEKHG5 (11743358_a_at) / RFU ZSCAN30 (11745921_a_at) / Fold change /veh ZSCAN30 (11745921_a_at) / RFU CMKLR1 (11741424_a_at) / Fold change /veh CMKLR1 (11741424_a_at) / RFU LOC101060620 /// MAPK8IP1 (11723275_at) / Fold change /veh LOC101060620 /// MAPK8IP1 (11723275_at) / RFU SPTSSB (11747773_x_at) / Fold change /veh SPTSSB (11747773_x_at) / RFU PRSS12 (11739890_at) / Fold change /veh PRSS12 (11739890_at) / RFU BIN1 (11741810_x_at) / Fold change /veh BIN1 (11741810_x_at) / RFU WNT11 (11732464_a_at) / Fold change /veh WNT11 (11732464_a_at) / RFU C10orf10 (11716521_a_at) / Fold change /veh C10orf10 (11716521_a_at) / RFU C5orf56 (11738089_at) / Fold change /veh C5orf56 (11738089_at) / RFU CYB561 (11721691_x_at) / Fold change /veh CYB561 (11721691_x_at) / RFU ANKRD19P (11752326_a_at) / Fold change /veh ANKRD19P (11752326_a_at) / RFU OR2T12 /// OR2T33 /// OR2T8 (11738714_s_at) / Fold change /veh OR2T12 /// OR2T33 /// OR2T8 (11738714_s_at) / RFU VCAN (11748164_a_at) / Fold change /veh VCAN (11748164_a_at) / RFU JSRP1 (11732532_at) / Fold change /veh JSRP1 (11732532_at) / RFU KRTAP10-11 (11738290_x_at) / Fold change /veh KRTAP10-11 (11738290_x_at) / RFU MYO3A (11730013_a_at) / Fold change /veh MYO3A (11730013_a_at) / RFU EBF3 (11725865_a_at) / Fold change /veh EBF3 (11725865_a_at) / RFU CAMK2N1 (11719241_x_at) / Fold change /veh CAMK2N1 (11719241_x_at) / RFU C5orf56 (11738088_a_at) / Fold change /veh C5orf56 (11738088_a_at) / RFU OLFML3 (11715873_a_at) / Fold change /veh OLFML3 (11715873_a_at) / RFU LOC100653217 /// NTM (11731650_a_at) / Fold change /veh LOC100653217 /// NTM (11731650_a_at) / RFU MAPK11 (11762145_a_at) / Fold change /veh MAPK11 (11762145_a_at) / RFU FIZ1 (11724087_x_at) / Fold change /veh FIZ1 (11724087_x_at) / RFU OASL (11726364_x_at) / Fold change /veh OASL (11726364_x_at) / RFU SOX15 (11748057_x_at) / Fold change /veh SOX15 (11748057_x_at) / RFU CD79A (11719716_a_at) / Fold change /veh CD79A (11719716_a_at) / RFU HIST1H1D (11736915_at) / Fold change /veh HIST1H1D (11736915_at) / RFU CASKIN2 (11723855_a_at) / Fold change /veh CASKIN2 (11723855_a_at) / RFU LOC730098 (11760151_x_at) / Fold change /veh LOC730098 (11760151_x_at) / RFU OR4N2 (11742367_at) / Fold change /veh OR4N2 (11742367_at) / RFU PRRT2 (11749266_a_at) / Fold change /veh PRRT2 (11749266_a_at) / RFU SNX32 (11753110_a_at) / Fold change /veh SNX32 (11753110_a_at) / RFU CDHR5 (11726645_a_at) / Fold change /veh CDHR5 (11726645_a_at) / RFU RCAN1 (11760418_a_at) / Fold change /veh RCAN1 (11760418_a_at) / RFU FAM167A (11723789_a_at) / Fold change /veh FAM167A (11723789_a_at) / RFU FAM26E (11764081_at) / Fold change /veh FAM26E (11764081_at) / RFU ISYNA1 (11749810_s_at) / Fold change /veh ISYNA1 (11749810_s_at) / RFU ACY1 (11761880_at) / Fold change /veh ACY1 (11761880_at) / RFU 11764098_at / Fold change /veh 11764098_at / RFU SAMD14 (11745864_x_at) / Fold change /veh SAMD14 (11745864_x_at) / RFU NPB (11741838_a_at) / Fold change /veh NPB (11741838_a_at) / RFU TMPRSS6 (11731388_a_at) / Fold change /veh TMPRSS6 (11731388_a_at) / RFU KRTAP10-2 (11738614_at) / Fold change /veh KRTAP10-2 (11738614_at) / RFU ARHGAP8 /// PRR5-ARHGAP8 (11727945_x_at) / Fold change /veh ARHGAP8 /// PRR5-ARHGAP8 (11727945_x_at) / RFU KRTAP5-7 /// NADSYN1 (11734609_at) / Fold change /veh KRTAP5-7 /// NADSYN1 (11734609_at) / RFU RASL12 (11751679_a_at) / Fold change /veh RASL12 (11751679_a_at) / RFU CDKN2B (11736163_a_at) / Fold change /veh CDKN2B (11736163_a_at) / RFU PRF1 (11729649_at) / Fold change /veh PRF1 (11729649_at) / RFU, ZNF638 /// ZNF638-IT1 / Fold change vs veh, ZNF638 /// ZNF638-IT1 / RFU, PANK3 / Fold change vs veh, PANK3 / RFU, SH3YL1 / Fold change vs veh, SH3YL1 / RFU, ZEB2 / Fold change vs veh, ZEB2 / RFU, NRIP1 / Fold change vs veh, NRIP1 / RFU, PTTG1IP / Fold change vs veh, PTTG1IP / RFU, CAPN2 / Fold change vs veh, CAPN2 / RFU, MED14 / Fold change vs veh, MED14 / RFU, SNORA58 / Fold change vs veh, SNORA58 / RFU, C1orf63 / Fold change vs veh, C1orf63 / RFU, LRRFIP1 / Fold change vs veh, LRRFIP1 / RFU, NDUFAF7 / Fold change vs veh, NDUFAF7 / RFU, SLC12A2 / Fold change vs veh, SLC12A2 / RFU, IBTK / Fold change vs veh, IBTK / RFU, ESF1 / Fold change vs veh, ESF1 / Fold change vs veh, TMEM50B / RFU, TAOK1 / Fold change vs veh, TAOK1 / RFU, ACBD3 / Fold change vs veh, ACBD3 / RFU, TMA16 / Fold change vs veh, TMA16 / RFU, RWDD3 / Fold change vs veh, RWDD3 / RFU, BCAT1 / Fold change vs veh, BCAT1 / RFU, EDEM3 / Fold change vs veh, EDEM3 / RFU, TMEM33 / Fold change vs veh, TMEM33 / RFU, WDR75 / Fold change vs veh, WDR75 / RFU, AHCTF1 / Fold change vs veh, AHCTF1 / RFU, TFRC / Fold change vs veh, TFRC / RFU, ZDHHC17 / Fold change vs veh, ZDHHC17 / RFU, NOM1 / Fold change vs veh, NOM1 / RFU, ARL8B / Fold change vs veh, ARL8B / RFU, ZBTB11 / Fold change vs veh, ZBTB11 / RFU, TAMM41 / Fold change vs veh, TAMM41 / RFU, KIAA1704 /// LOC100996395 / Fold change vs veh, KIAA1704 /// LOC100996395 / RFU, ING1 / Fold change vs veh, ING1 / RFU, TRMT61B / Fold change vs veh, TRMT61B / RFU, FUBP3 / Fold change vs veh, FUBP3 / RFU, TP53 / Fold change vs veh, TP53 / RFU, TNKS2 / Fold change vs veh, TNKS2 / RFU, ZFP14 / Fold change vs veh, ZFP14 / RFU, ACTR2 / Fold change vs veh, ACTR2 / RFU, PPP3R1 / Fold change vs veh, PPP3R1 / RFU, PIK3R1 / Fold change vs veh, PIK3R1 / RFU, HNRNPA1 / Fold change vs veh, HNRNPA1 / RFU, RNF170 / Fold change vs veh, RNF170 / RFU, ZNF28 / Fold change vs veh, ZNF28 / RFU, RNGTT / Fold change vs veh, RNGTT / RFU, OGT / Fold change vs veh, OGT / RFU, BRD1 / Fold change vs veh, BRD1 / RFU, MARS / Fold change vs veh, MARS / RFU, ZNF655 / Fold change vs veh, ZNF655 / RFU, FAHD1 / Fold change vs veh, FAHD1 / RFU, BDP1 / Fold change vs veh, BDP1 / RFU, LRRCC1 / Fold change vs veh, LRRCC1 / RFU, ARID1A / Fold change vs veh, ARID1A / RFU, ZNF146 / Fold change vs veh, ZNF146 / RFU, ZNF330 / Fold change vs veh, ZNF330 / RFU, GPN3 / Fold change vs veh, GPN3 / RFU, C9orf123 / Fold change vs veh, C9orf123 / RFU, N4BP2L2 / Fold change vs veh, N4BP2L2 / RFU, ARFIP1 / Fold change vs veh, ARFIP1 / RFU, FAM179B / Fold change vs veh, FAM179B / RFU, BCL10 / Fold change vs veh, BCL10 / RFU, UHRF1BP1L / Fold change vs veh, UHRF1BP1L / RFU, BET1 / Fold change vs veh, BET1 / RFU, CNOT2 / Fold change vs veh, CNOT2 / RFU, ZNF268 / Fold change vs veh, ZNF268 / Fold change vs veh, ZNF507 / RFU, DGCR2 / Fold change vs veh, DGCR2 / RFU, WDSUB1 / Fold change vs veh, WDSUB1 / Fold change vs veh, HSP90B1 /// MIR3652 / RFU, ADSS / Fold change vs veh, ADSS / RFU, GK / Fold change vs veh, GK / RFU, ZNF148 / Fold change vs veh, ZNF148 / RFU, TAF9 / Fold change vs veh, TAF9 / RFU, SLC1A5 / Fold change vs veh, SLC1A5 / RFU, SLMO2 / Fold change vs veh, SLMO2 / RFU, ABCC4 / Fold change vs veh, ABCC4 / RFU, LOC101060439 /// RAP1B / Fold change vs veh, LOC101060439 /// RAP1B / RFU, RFX7 / Fold change vs veh, RFX7 / RFU, GTPBP10 / Fold change vs veh, GTPBP10 / RFU, CNEP1R1 / Fold change vs veh, CNEP1R1 / RFU, BIVM-ERCC5 /// ERCC5 / Fold change vs veh, BIVM-ERCC5 /// ERCC5 / RFU, ILF3 / Fold change vs veh, ILF3 / RFU 11762660_at / Fold change /veh 11762660_at / RFU VCAN (11757783_s_at) / Fold change /veh VCAN (11757783_s_at) / RFU DDX43 (11728927_at) / Fold change /veh DDX43 (11728927_at) / RFU KRT8 (11758188_x_at) / Fold change /veh KRT8 (11758188_x_at) / RFU NKD1 (11759106_at) / Fold change /veh NKD1 (11759106_at) / RFU SRD5A1 (11742802_a_at) / Fold change /veh SRD5A1 (11742802_a_at) / RFU TPSAB1 /// TPSB2 (11721975_s_at) / Fold change /veh TPSAB1 /// TPSB2 (11721975_s_at) / RFU GSTM3 (11746129_a_at) / Fold change /veh GSTM3 (11746129_a_at) / RFU IL23R (11737362_x_at) / Fold change /veh IL23R (11737362_x_at) / RFU TMEM51 (11727254_a_at) / Fold change /veh TMEM51 (11727254_a_at) / RFU PIWIL2 (11732686_x_at) / Fold change /veh PIWIL2 (11732686_x_at) / RFU ORM1 (11744905_x_at) / Fold change /veh ORM1 (11744905_x_at) / RFU CCDC152 (11743942_at) / Fold change /veh CCDC152 (11743942_at) / RFU ECM1 (11717891_a_at) / Fold change /veh ECM1 (11717891_a_at) / RFU IL23R (11748794_a_at) / Fold change /veh IL23R (11748794_a_at) / RFU TNFAIP8L3 (11732012_x_at) / Fold change /veh TNFAIP8L3 (11732012_x_at) / RFU MBOAT4 (11741988_at) / Fold change /veh MBOAT4 (11741988_at) / RFU 11764193_at / Fold change /veh 11764193_at / RFU TMEM53 (11763286_at) / Fold change /veh TMEM53 (11763286_at) / RFU MAGEB2 (11727129_at) / Fold change /veh MAGEB2 (11727129_at) / RFU TMEM200A (11744735_a_at) / Fold change /veh TMEM200A (11744735_a_at) / RFU CCDC152 (11751479_a_at) / Fold change /veh CCDC152 (11751479_a_at) / RFU FAM211A (11726209_a_at) / Fold change /veh FAM211A (11726209_a_at) / RFU RGS16 (11746705_a_at) / Fold change /veh RGS16 (11746705_a_at) / RFU VCAN (11755009_s_at) / Fold change /veh VCAN (11755009_s_at) / RFU RHOB (11743442_s_at) / Fold change /veh RHOB (11743442_s_at) / RFU RGS16 (11720943_a_at) / Fold change /veh RGS16 (11720943_a_at) / RFU RGS16 (11720944_at) / Fold change /veh RGS16 (11720944_at) / RFU, VPS4B / Fold change vs veh, VPS4B / RFU, CREB1 / Fold change vs veh, CREB1 / RFU, DNAJC13 / Fold change vs veh, DNAJC13 / RFU, GNAQ / Fold change vs veh, GNAQ / RFU, CDK5R1 / Fold change vs veh, CDK5R1 / RFU, ZRANB3 / Fold change vs veh, ZRANB3 / RFU, CUL4A / Fold change vs veh, CUL4A / RFU, CCNY / Fold change vs veh, CCNY / RFU, UFL1 / Fold change vs veh, UFL1 / RFU, COG3 / Fold change vs veh, COG3 / RFU, DIAPH2 / Fold change vs veh, DIAPH2 / RFU, SKA2 / Fold change vs veh, SKA2 / RFU, AFF3 / Fold change vs veh, AFF3 / RFU, LMF1 / Fold change vs veh, LMF1 / RFU, IPO11 / Fold change vs veh, IPO11 / RFU, DFFB / Fold change vs veh, DFFB / RFU, FOXP1 / Fold change vs veh, FOXP1 / RFU, CARD8 / Fold change vs veh, CARD8 / RFU, STRN3 / Fold change vs veh, STRN3 / RFU, ADK / Fold change vs veh, ADK / RFU, RASSF2 / Fold change vs veh, RASSF2 / RFU, WIPF1 / Fold change vs veh, WIPF1 / RFU, LARP1B / Fold change vs veh, LARP1B / RFU, RASA1 / Fold change vs veh, RASA1 / RFU, RB1 / Fold change vs veh, RB1 / RFU, PPFIA1 / Fold change vs veh, PPFIA1 / RFU, MAT2A / Fold change vs veh, MAT2A / RFU, CCT5 / Fold change vs veh, CCT5 / RFU, WDR92 / Fold change vs veh, WDR92 / RFU, CUX1 / Fold change vs veh, CUX1 / RFU, TTC7A / Fold change vs veh, TTC7A / RFU, TMEM135 / Fold change vs veh, TMEM135 / RFU, DEPTOR / Fold change vs veh, DEPTOR / RFU, CPM / Fold change vs veh, CPM / RFU, DNAJB6 / Fold change vs veh, DNAJB6 / RFU, CACNA2D3 / Fold change vs veh, CACNA2D3 / RFU, DTX4 / Fold change vs veh, DTX4 / RFU, TFCP2 / Fold change vs veh, TFCP2 / RFU, GMCL1 /// GMCL1P1 / Fold change vs veh, GMCL1 /// GMCL1P1 / RFU, AEBP2 / Fold change vs veh, AEBP2 / RFU, SNHG1 /// SNORD22 /// SNORD25 /// SNORD26 /// SNORD27 /// SNORD28 /// SNORD29 /// SNORD31 / Fold change vs veh, SNHG1 /// SNORD22 /// SNORD25 /// SNORD26 /// SNORD27 /// SNORD28 /// SNORD29 /// SNORD31 / Fold change (Aza/veh), C12orf56 (ProbeSet 11735607_a_at) / Fold change (ACY-1035/veh), C12orf56 (ProbeSet 11735607_a_at) / Fold change (Aza/veh), FGFR1OP (ProbeSet 11751329_s_at) / Fold change (ACY-1035/veh), FGFR1OP (ProbeSet 11751329_s_at) / Fold change (Aza/veh), VPS36 (ProbeSet 11739960_a_at) / Fold change (ACY-1035/veh), VPS36 (ProbeSet 11739960_a_at) / RFU SYPL1 (11715823_x_at) / Fold change /veh SYPL1 (11715823_x_at) / RFU IGFBP7 (11715501_s_at) / Fold change /veh IGFBP7 (11715501_s_at) / RFU REEP3 (11722064_at) / Fold change /veh REEP3 (11722064_at) / RFU IGLL1 (11728026_x_at) / Fold change /veh IGLL1 (11728026_x_at): dose or concentration left out as unconfirmed
Settings: ProbeSet 11729384_s_at; LIST D

Structure (SMILES): Nc1ccc(-c2cccs2)cc1NC(=O)c1ccc2c(c1)cc(C1CC1)n2CCN1CCOCC1 [ACY-1035]
- RFU, CCNY: 178.51 RFU
